Data published in US20060264460A1 (Wyeth, priority 2005, published 2006).

Each molecule was assayed against T1, human Cot/Tpl2 kinase (Homo sapiens, UniProt P41279) (assay: Tpl2/Cot kinase assay: GST-MEK1 phosphorylation detected by ELISA (DELFIA Eu)). Settings: 0.4 nM Tpl2, 35 nM GST-MEK1, 50 uM ATP, 1 h at 30° C.
T1 construct: human Cot/Tpl2 kinase construct encoding residues 30-398; 6His (N); made in house; host or cells: Sf9 insect cells, baculovirus system (BD Biosciences)
Assay type: biochemical
Procedure: Sf9 cells expressing the kinase were lysed in 50 mM NaPhosphate pH=8; 300 mM NaCl; 5 mM imidazole; 0.1 mM EGTA; 25 mM beta-glycerophosphate; 1% TX-100, 1% glycerol; 6 mM beta-mercaptoethanol and protease inhibitors. The lysate was clarified by centrifugation and was loaded onto a Ni-Sepharose column. The column was washed with 50 mM NaPhosphate pH=8; 300 mM NaCl; 15 mM imidazole; 1% glycerol; and 6 mM beta-mercaptoethanol. His-Tpl2 was eluted with 50 mM NaPhosphate pH=8; 300 mM NaCl; 250 mM imidazole; 1% glycerol; and 6 mM beta-mercaptoethanol. The eluted protein was further purified by size exclusion chromatography. Fractions corresponding to monomeric Tpl2 were then used in the assay.
Tpl2/Cot activity was directly assayed using GST-MEK1 as a substrate. GST-MEK1 phosphorylation on serine residues 217 and 221 was detected by ELISA. 0.4 nM Tpl2 was incubated with 35 nM GST-MEK1 in a kinase reaction buffer containing 20 mM MOPS pH=7.2; 50 uM ATP; 20 mM MgCl2; 1 mM DTT; 25 mM β-glycerophosphate; 5 mM EGTA; and 1 mM sodium orthovanadate for 1 h at 30° C. The compounds of the inventions solubilized in 100% DMSO were pre-diluted in assay buffer so that the final concentration of DMSO in the reaction was 1%. The kinase reaction was carried out in 100 ul volume on 96 well plates. The kinase reaction was then stopped with the addition of 100 mM EDTA. […] After a 1 hour incubation at room temperature, the detection plate was washed 4 times with TBST (TBS+0.05% Tween 20) and then incubated for another hour at room temperature with anti phospho-MEK1 antibody (Cell Signaling) 1:1000 in 10 mM MOPS 7.5; 150 mM NaCl; 0.05% Tween 20; 0.1% Gelatin; 0.02% NaN3; and 1% BSA. The detection plate was washed again and incubated for 30 min with DELFIA Europium (Eu) labeled goat anti-rabbit IgG (Perkin-Elmer), 1:4000 in the same buffer used for the primary incubation. After a final wash, Eu detection solution was added to each well and the Eu signal was measured in a Wallac Victor^2 Multilabel Counter. IC50 calculations were performed using the XLfit software package (IDBS, Guildford, UK).

T1 sequence (P41279 30-398): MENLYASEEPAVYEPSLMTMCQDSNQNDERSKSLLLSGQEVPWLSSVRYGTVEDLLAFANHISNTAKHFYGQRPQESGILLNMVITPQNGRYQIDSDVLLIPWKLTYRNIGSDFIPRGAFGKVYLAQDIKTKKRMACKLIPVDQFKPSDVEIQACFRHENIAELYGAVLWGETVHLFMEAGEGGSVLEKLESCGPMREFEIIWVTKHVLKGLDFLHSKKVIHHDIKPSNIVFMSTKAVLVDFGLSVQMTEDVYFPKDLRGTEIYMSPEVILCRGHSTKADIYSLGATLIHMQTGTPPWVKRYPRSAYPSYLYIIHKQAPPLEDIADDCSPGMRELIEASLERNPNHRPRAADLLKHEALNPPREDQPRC

| SMILES | IC50 |
| --- | --- |
| CCc1nc(CNc2cc(Cl)c3ncc(C#N)c(Nc4ccc(F)c(Cl)c4)c3c2)cn1CC(N)=O [Example 193, 2-(4-((8-chloro-4-(3-chloro-4-fluorophenylamino)-3-cyanoquinolin-6-ylamino)methyl)-2-ethyl-1H-imidazol-1-yl)acetamide] | 410 nM |
| CN1CCN(S(=O)(=O)c2ccc(CNc3ccc4ncc(C#N)c(Nc5ccc(F)c(Cl)c5)c4c3)cc2)CC1 [Example 122, 6-(4-(4-methylpiperazin-1-ylsulfonyl)benzylamino)-4-(3-chloro-4-fluorophenylamino)quinoline-3-carbonitrile] | 580 nM |
| N#Cc1cnc2c(F)cc(NCc3ccn[nH]3)cc2c1Nc1ccc(F)c(Cl)c1 [Example 267, 4-[(3-chloro-4-fluorophenyl)amino]-8-fluoro-6-[(1H-pyrazol-5-ylmethyl)amino]quinoline-3-carbonitrile] | 100 nM |
| N#Cc1cnc2c(C(=O)NCc3ccccc3)cc(NCc3cccnc3)cc2c1Nc1cccc(Cl)c1 [Example 80, N-benzyl-4-(3-chlorophenylamino)-3-cyano-6-(pyridin-3-ylmethylamino)quinoline-8-carboxamide] | > 40000 nM |
| N#Cc1cnc2ccc(NCc3ccc(CO)o3)cc2c1Nc1ccc(F)c(Cl)c1 [Example 9, 4-(3-Chloro-4-fluoro-phenylamino)-6-[(5-hydroxymethyl-furan-2-ylmethyl)-amino]-quinoline-3-carbonitrile] | 211 nM |
| N#Cc1cnc2ccc(NCc3cnc[nH]3)cc2c1Nc1ccncc1 [Example 264, 6-[(1H-imidazol-5-ylmethyl)amino]-4-(pyridin-4-ylamino)quinoline-3-carbonitrile] | 2500 nM |
| COc1c(C)cnc(CNc2cc(Cl)c3ncc(C#N)c(Nc4ccc(F)c(Cl)c4)c3c2)c1C [Example 276, 8-chloro-4-[(3-chloro-4-fluorophenyl)amino]-6-{[(4-methoxy-3,5-dimethylpyridin-2-yl)methyl]amino}quinoline-3-carbonitrile] | 4700 nM |
| Cc1cccc(CNc2cc(Cl)c3ncc(C#N)c(Nc4ccc(F)c(Cl)c4)c3c2)[n+]1[O-] [Example 195, 8-chloro-4-[(3-chloro-4-fluorophenyl)amino]-6-{[(6-methyl-1-oxidopyridin-2-yl)methyl]amino}quinoline-3-carbonitrile] | 32 nM |
| CN1CCN(c2cc3ncc(C#N)c(Nc4ccc(F)c(Cl)c4)c3cc2NCc2cnc[nH]2)CC1 [Example 161, 6-((1H-imidazol-5-yl)methylamino)-4-(3-chloro-4-fluorophenylamino)-7-(4-methylpiperazin-1-yl)quinoline-3-carbonitrile] | > 40000 nM |
| CC(C)c1nc[nH]c1CNc1cc(Cl)c2ncc(C#N)c(Nc3ccc(F)c(Cl)c3)c2c1 [Example 214, 8-chloro-4-[(3-chloro-4-fluorophenyl)amino]-6-{[(4-isopropyl-1H-imidazol-5-yl)methyl]amino}quinoline-3-carbonitrile] | 16 nM |
| CC(Nc1ccc2ncc(C#N)c(Nc3ccc(F)c(Cl)c3)c2c1)c1ccccn1 (stereo not shown) [Example 127, 4-(3-chloro-4-fluorophenylamino)-6-(1-(pyridin-2-yl)ethylamino)quinoline-3-carbonitrile] | 64 nM |
| C[C@H](Nc1ccc2ncc(C#N)c(Nc3ccc(F)c(Cl)c3)c2c1)c1ccccn1 [Example 173, (S)-4-(3-chloro-4-fluorophenylamino)-6-(1-(pyridin-2-yl)ethylamino)quinoline-3-carbonitrile] | > 40000 nM |
| CCNc1cc(Cl)c2ncc(C#N)c(Nc3ccc(F)c(Cl)c3)c2c1 [Example 199, 8-chloro-4-[(3-chloro-4-fluorophenyl)amino]-6-(ethylamino)quinoline-3-carbonitrile] | 1400 nM |

Same assay, conditions: Table 2; Tpl2/Cot kinase, GST-MEK1 substrate, 50 uM ATP

| SMILES | IC50 |
| --- | --- |
| COCCOCCn1cc(CNc2cc(Br)c3ncc(C#N)c(Nc4ccc(F)c(Cl)c4)c3c2)nn1 [Example 565] | 100 nM |
| N#Cc1cnc2c(Cl)cc(NCC(=O)O)cc2c1Nc1ccc(F)c(Cl)c1 [Example 465] | 51 nM |
| N#Cc1cnc2c(Br)cc(NCc3cn(CCS(=O)(=O)C4CCCC4)nn3)cc2c1Nc1ccc(F)c(Cl)c1 [Example 524] | 53 nM |
| CN(C)CCC(c1cccnc1)n1cc(CNc2cc(Cl)c3ncc(C#N)c(Nc4ccc(F)c(Cl)c4)c3c2)nn1 (stereo not shown) [Example 588] | 36 nM |
| Cn1cncc1CNc1cc(Cl)c2ncc(C#N)c(Nc3ccc(F)c(Cl)c3)c2c1 [Example 439] | 220 nM |
| N#Cc1cnc2c(Cl)cc(NCc3csnn3)cc2c1Nc1ccc(F)c(Cl)c1 [Example 440] | 49 nM |
| CC(C)(C)OC(=O)N1CCC(Nc2ccc3ncc(C#N)c(Nc4ccc(F)c(Cl)c4)c3c2)CC1 [Example 379] | > 40000 nM |
| C=CCn1cc(CNc2cc(Br)c3ncc(C#N)c(Nc4ccc(F)c(Cl)c4)c3c2)nn1 [Example 561] | 20 nM |
| CCN(C[C@@H]1CCCN1)c1cc(Cl)c2ncc(C#N)c(Nc3ccc(F)c(Cl)c3)c2c1 [Example 640] | > 3000 nM |
| N#Cc1cnc2c(Br)cc(NCc3cn(CC4CCCNC4)nn3)cc2c1Nc1ccc(F)c(Cl)c1 (stereo not shown) [Example 545] | 33 nM |
| CS(=O)(=O)CCn1cnc(CNc2cc(Br)c3ncc(C#N)c(Nc4ccc(F)c(Cl)c4)c3c2)c1 [Example 529] | 43 nM |

Same assay, conditions: Tpl2/Cot kinase, GST-MEK1 substrate, 50 uM ATP

| SMILES | IC50 |
| --- | --- |
| N#Cc1cnc2c(Br)cc(NCC(=O)O)cc2c1Nc1ccc(F)c(Cl)c1 [Example 798] | 140 nM |
| N#Cc1cnc2c(Cl)cc(NCc3ccncc3)cc2c1Nc1ccc(F)c(Cl)c1 [Example 845] | 22 nM |
| N#Cc1cnc2c(Br)cc(NCc3cnc4cnccn34)cc2c1Nc1ccc(F)c(Cl)c1 [Example 700] | 110 nM |
| N#Cc1cnc2c(Cl)cc(NCc3cn(CC4CCCN4)nn3)cc2c1Nc1ccc(F)c(Cl)c1 (stereo not shown) [Example 721] | 9.1 nM |
| CC(C)(C)OC(=O)N1CCC(Nc2ccc3ncc(C#N)c(Nc4ccc(F)c(Cl)c4)c3c2)CC1 [Example 656] | > 40000 nM |
| N#Cc1cnc2c(Cl)cc(NCc3cn(Cc4ccncc4)cn3)cc2c1Nc1ccc(F)c(Cl)c1 [Example 787] | 5.3 nM |
| N#Cc1cnc2c(Cl)cc(NCC3CCNCC3)cc2c1Nc1ccc(F)c(Cl)c1 [Example 824] | 1240 nM |
| CC(C)(C)OC(=O)N1CCC(CCn2cc(CNc3cc(Br)c4ncc(C#N)c(Nc5ccc(F)c(Cl)c5)c4c3)nn2)CC1 [Example 675] | 130 nM |
| N#Cc1cnc2c(Cl)cc(NCc3cn(Cc4ccc(C(F)(F)F)cc4)nn3)cc2c1Nc1ccc(F)c(Cl)c1 [Example 756] | > 3000 nM |
| CC(C)N1CCC[C@@H]1Cn1cc(CNc2cc(Cl)c3ncc(C#N)c(Nc4ccc(F)c(Cl)c4)c3c2)nn1 [Example 893] | 46 nM |
| CCN1CCC(Cn2cc(CNc3cc(Br)c4ncc(C#N)c(Nc5ccc(F)c(Cl)c5)c4c3)nn2)CC1 [Example 735] | 40 nM |
| N#Cc1cnc2c(Br)cc(NCc3cnc4ccccn34)cc2c1Nc1ccc(F)c(Cl)c1 [Example 701] | 280 nM |
| N#Cc1cnc2c(Br)cc(NCc3cn(CC(F)(F)F)nn3)cc2c1Nc1ccc(F)c(Cl)c1 [Example 673] | 100 nM |
| N#Cc1cnc2c(Cl)cc(NCc3cn(CCCNC(=O)C4CC4)nn3)cc2c1Nc1ccc(F)c(Cl)c1 [Example 912] | 1.9 nM |
| CN(C)C(=O)OCCCn1cc(CNc2cc(Br)c3ncc(C#N)c(Nc4ccc(F)c(Cl)c4)c3c2)nn1 [Example 752] | 3.5 nM |

Same assay, conditions: Tpl2/Cot kinase, GST-MEK1 substrate, 50 uM ATP, 1 h at 30° C.; Table 2

| SMILES | IC50 |
| --- | --- |
| CC(C)N1CCC(O)(c2cncc(CNc3cc(Cl)c4ncc(C#N)c(Nc5ccc(F)c(Cl)c5)c4c3)c2)CC1 [Example 1033] | 500 nM |
| N#Cc1cnc2c(Cl)cc(NCc3cn(CCc4cncc(C(O)(C(F)(F)F)C(F)(F)F)c4)nn3)cc2c1Nc1ccc(F)c(Cl)c1 [Example 1042] | 130 nM |
| CC(C)(C)OC(=O)N1CCC(n2cc(CNc3cc(Cl)c4ncc(C#N)c(NC5CCCCCC5)c4c3)nn2)CC1 [Example 948] | 2310 nM |
| N#CCn1cc(CNc2cc(Cl)c3ncc(C#N)c(Nc4ccc(F)c(Cl)c4)c3c2)nn1 [Example 1021] | 430 nM |
| CC(C)(C)OC(=O)N1CCC(O)(c2cncc(CNc3cc(Cl)c4ncc(C#N)c(Nc5ccc(F)c(Cl)c5)c4c3)c2)CC1 [Example 1031] | 160 nM |
| N#Cc1cnc2c(Cl)cc(NCc3cn(C4CCN(C(=O)OCCF)CC4)nn3)cc2c1Nc1ccc(F)c(Cl)c1 [Example 982] | 31 nM |
| CCNC1CCC(n2cc(CNc3cc(Cl)c4ncc(C#N)c(Nc5ccc(F)c(Cl)c5)c4c3)nn2)CC1 (stereo not shown) [Example 1035] | 36 nM |
